# Results reported in EP0598753B1, “MANGANESE COMPLEXES OF NITROGEN-CONTAINING MACROCYCLIC LIGANDS EFFECTIVE AS CATALYSTS FOR DISMUTATING SUPEROXIDE” (MONSANTO COMPANY, priority 1991, dated 1993).
# Columns and labels:
# [1] = tested on: rat lung fibroblast cells; test: Nitric oxide: rat lung fibroblast cGMP reporter assay; assay type: cell-based; settings: for cGMP: mean
# Procedure: The assay is described in Ishii, I., Sheng, H., Warner, T.D., Förstermann, V. and Murad, F., Am. J. Physiol., 261 (Heart Circ. Physiol. 30); H598-H603, 1991 modified in that the nitric oxide synthase (NOS) is added directly to the cells. Rat lung fibroblast cells were grown to confluence on a 48-well tissue culture plate containing Earle's salts medium. The medium is removed and the cells washed twice with minimal essential medium buffered with Earle's salts. A nitric oxide (NO) generating system consisting of enzyme (NOS), nicotinamide adenine dinucleotide phosphate (NADPH), arginine and required cofactors, such as tetrahydrobiopterin and flavin adenine dinucleotide (FAD) is subsequently added to each well. In cases where the complex of Example 1 was added, addition occurred with the NO generating system. After five minutes of incubation, each reaction is terminated, cellular cGMP extracted and measured by radioimmunoassay.
# The capacity of the rat lung fibroblast cells to respond to NO was confirmed by adding sodium nitroprusside (SNP), a compound which spontaneously degrades to NO and results in increased cGMP levels. Next, crude NOS (prepared from endotoxin-treated RAW 264.7 cells) was added to the rat lung fibroblast cells to determine their response to enzymatically generated NO. A dose-dependent increase in cGMP with increasing amounts of enzyme was obtained. Superoxide dismutase (SOD) addition augmented cellular cGMP levels.
# [2] = tested on: human aortic endothelial cells (HAE cells)
# Excerpt: (§1) Human peripheral blood neutrophils were isolated from fresh venous blood of healthy volunteers. EDTA anticoagulated blood was separated using a single step density centrifugation (Polymorphprep; Nycomed Pharma, Oslo, Norway) followed by several washes in Hank's balanced salt solution supplemented with 0.5% BSA (Bovine Serum Albumin) (HBSSB) and the hypertonic lysis of erythrocytes. Neutrophils were counted via Coulter electronic particle counter and resuspended in HBSSB supplemented with 25% Endothelial Basal Medium (EBM), (Clonetics Corporation, San Diego, CA) at a concentration of 5 x 10^6 polymorphonuclear leukocytes (PMN)/ml.
# (§2) The cytotoxic effects of stimulated neutrophils on endothelial cells were determined using a ^51Cr-release assay as previously described (Moldow, C.F., and Jacob, H.S. (1984) Methods Enzymol. 105, 378-385). Confluent monolayers of human aortic endothelial cells (HAE cells; Clonetics) grown in 96-well culture plates were prelabeled with 1 µCi/well ^51Cr (Na2 ^51Cr2O4, New England Nuclear, Boston, MA). The cells were incubated for 18 h at 37°C, then cytokine-activated with 10 Units/well human recombinant tumor necrosis factor-a (hrTNF-α; Monsanto Company, St. Louis, MO) for 4 h at 37°C. The cells were washed twice to remove unincorporated radioactivity with Hank's balanced salt solution supplemented with 0.5% BSA. To assess inhibition of PMN-mediated cytotoxicity, manganese(II) complexes at various doses (0-300 µM) were added to five replicate wells/dose of HAE cells immediately prior to the addition of PMN. Suspensions of PMN in HBSSB supplemented with 25% Endothelial Basal Medium were added to the wells at a neutrophil to endothelial cell ratio of 50:1. The PMN were allowed to adhere for 15 minutes at 37°C, primed with 125 Units/well hrTNF-α (Berkow, R.L., Wang, D., Larrick, J.W., Dodson, R.W., and Howard, T.H. (1987) J. Immunol. 139, 3783-3791; Varani, J.; Bendelow, M. J. Sealey, D. E.; Kunkel, S. L.; Gannon, D. E.; Ryan, U.S.; and Ward, P.A. (1987) Lab. Invest., 59, 292-295) for 10 minutes, and stimulated with human recombinant complement component C5a (Sigma Chemical, St. Louis, MO). […] After an additional incubation of 4 hours at 37°C, 200 µl of the 250 µl reaction volume (soluble fraction) was removed to a tube for counting. The cells were washed twice with 200 µl HBSSB (nonadherent fraction) and the washes pooled with the soluble fraction. The adherent fraction was collected by lysing the HAE cells with 200 µl 1N NaOH for 30 minutes and removing to separate tubes. Both fractions were analyzed by gamma scintillation spectrometry. The percentage cytotoxicity was calculated by the following formula: % Cytotoxicity =(cpm (soluble + nonadherent fractions))/(cpm (soluble + nonadherent + adherent fractions))x 100 [formula] Specific cytotoxicity reflects the difference between ^51Cr-release induced by stimulated PMN and unstimulated PMN. The IC50 values for the manganese(II) complexes for protection against neutrophil-mediated cytotoxicity were determined from a computer-driven logistic regression equation from a plot of % specific cytotoxicity versus the concentration of the manganese(II) complex.
# conscious rats = test: Rat hemodynamic model (mean blood pressure, conscious rats); assay type: in vivo, male Sprague-Dawley rats
# Procedure: Catheters were inserted into the femoral vein, femoral artery and bladder of male Sprague-Dawley rats (250-325 grams total body weight) anesthetized with ether. The rats were then placed in individual restraining cages and allowed to regain consciousness. Blood pressure was measured by a standard pressure transducer and physiograph. Increasing doses of the manganese(II) complex of Example 1 (prepared in an aqueous solution) were given as single bolus injections. The results of the tests can be found in Figure 1. The blood pressure values represent the mean arterial blood pressure from the mean values of 3 rats. […] Thus, the potentiation by the complex of Example 1 of the vasorelaxant effects of NO is consistent with the proposed mechanism of action as an SOD mimic.
# [3] = tested on: human aortic endothelial cells (HAE cells); test: Neutrophil-mediated cytotoxicity assay (51Cr-release); settings: 50% inhibition of specific cytotoxicity; human neutrophil-mediated killing of human aortic endothelial cells
# Excerpt: as §1, §2
# [4] = tested on: colonic myeloperoxidase activity; test: Mouse acetic acid-induced colitis model (colonic myeloperoxidase); assay type: in vivo; settings: 30 mg/kg dose, intracolonic, 30 minutes before acetic acid, tissue after 24 hours
# Procedure: Mouse colitis model. […] Mice were lightly anesthetized. A solution of 3% (v/v) aqueous acetic acid was instilled intracolonically via a flexible polyethylene tube. After 24 hours, the animals were killed and colonic tissue samples were obtained. Tissue samples were assessed biochemically for the neutrophil marker enzyme, myeloperoxidase (MPO). The colonic tissue samples were minced, homogenized in detergent, and sonicated. After centrifugation, enzyme activities were assayed spectrophotometrically by determining the decomposition of peroxide using o-dianisidine as the hydrogen donor. Data was obtained as the absorbance (460 nm) at 20 minutes. Test agents were given intracolonically at a dose of 30 mg/kg body weight 30 minutes before acetic acid instillation as a sonicated suspension in 0.5% aqueous methyl cellulose. Vehicle was given to appropriate acetic acid control animals. Normal tissue was obtained from control animals which received only vehicle. Colonic myeloperoxidase activities were determined as units/g wet weight of tissue. Reduction of colonic myeloperoxidase activity by test agents in acetic acid-treated mice is expressed as % inhibition (Table 2). Colonic myeloperoxidase activity correlated with the degree of tissue inflammation as assessed by visual and histological analysis.
# [5] = target: T1, nitric oxide synthase (NOS) (Mus musculus, UniProt P29477); test: NOS activity measured by citrulline production; assay type: biochemical
# T1 construct: crude NOS (prepared from endotoxin-treated RAW 264.7 cells); endogenous in cells; host or cells: endotoxin-treated RAW 264.7 cells (crude enzyme preparation)
# T1 sequence (P29477 1-1144): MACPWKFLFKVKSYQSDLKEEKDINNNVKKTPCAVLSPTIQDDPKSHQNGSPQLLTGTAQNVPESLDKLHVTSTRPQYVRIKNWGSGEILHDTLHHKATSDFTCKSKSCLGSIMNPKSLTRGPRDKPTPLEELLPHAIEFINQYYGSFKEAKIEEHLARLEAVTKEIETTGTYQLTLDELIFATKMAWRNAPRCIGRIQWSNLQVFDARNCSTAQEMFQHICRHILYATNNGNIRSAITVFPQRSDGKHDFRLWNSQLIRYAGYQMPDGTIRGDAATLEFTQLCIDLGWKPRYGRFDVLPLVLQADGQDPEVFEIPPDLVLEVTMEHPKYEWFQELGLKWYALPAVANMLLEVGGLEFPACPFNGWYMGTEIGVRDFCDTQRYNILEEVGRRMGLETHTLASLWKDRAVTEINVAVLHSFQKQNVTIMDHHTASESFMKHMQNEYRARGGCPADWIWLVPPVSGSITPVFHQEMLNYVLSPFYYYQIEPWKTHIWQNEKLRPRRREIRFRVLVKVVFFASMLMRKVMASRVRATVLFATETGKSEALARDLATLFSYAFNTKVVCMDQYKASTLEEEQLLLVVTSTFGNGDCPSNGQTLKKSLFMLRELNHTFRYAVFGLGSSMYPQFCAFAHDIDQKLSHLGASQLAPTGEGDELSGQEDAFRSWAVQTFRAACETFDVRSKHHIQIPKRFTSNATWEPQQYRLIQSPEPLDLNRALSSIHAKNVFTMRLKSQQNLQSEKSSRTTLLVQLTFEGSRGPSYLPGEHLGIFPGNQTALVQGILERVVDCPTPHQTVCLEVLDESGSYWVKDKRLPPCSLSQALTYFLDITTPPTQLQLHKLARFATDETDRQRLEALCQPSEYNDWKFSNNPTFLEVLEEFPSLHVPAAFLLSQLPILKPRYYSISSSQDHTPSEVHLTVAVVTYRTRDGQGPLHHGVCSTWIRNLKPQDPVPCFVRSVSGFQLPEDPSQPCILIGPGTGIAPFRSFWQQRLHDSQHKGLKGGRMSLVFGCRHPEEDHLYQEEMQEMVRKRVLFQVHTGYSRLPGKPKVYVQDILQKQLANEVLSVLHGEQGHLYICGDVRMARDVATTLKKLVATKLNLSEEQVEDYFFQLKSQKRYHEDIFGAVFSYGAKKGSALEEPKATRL
# rat aortic rings = test: Rat aortic ring assay
# Procedure: The aortic rings were prepared using a Furchgott procedure (described in Furchgott, R.F., "Role of Endothelium in Response of Vascular Smooth Muscle", Circ. Res. 53: 557-573, 1983) with changes in tension recorded. In all preparations, initial tension (1.5 grams) was produced with 30 mM KCl.
smiles,measurement,setting,value
"C1CNCCNCCNCCNCCN1.[Cl-].[Cl-].[Mn+2] [Example 1, [Manganese(II)dichloro(1,4,7,10,13-Pentaazacyclopentadecane)]]",cGMP,[1]; NOS + complex 0.0001mM,19.3 fmol/well/10
same,cGMP,[1]; NOS + complex 0.001mM,21.7 fmol/well/10
same,cGMP,[1]; NOS + complex 0.01mM,43.7 fmol/well/10
same,cGMP,[1]; NOS + complex 0.10mM,54.7 fmol/well/10
same,cGMP,[1]; NOS + complex 1.0mM,60.3 fmol/well/10
same,cGMP,"[1]; complex alone, 1mM, no NOS",11.7 fmol/well/10
same,"basal levels of cGMP, in words","[1]; complex alone, 1 millimolar",not increased
same,"cGMP levels, in words","[1]; with NO generating system, 1 micromolar to 1 millimolar",dose-dependent increase in cGMP levels
same,"protection against human neutrophil-mediated cytotoxicity, in words",[2],protective against human neutrophil-mediated cytotoxicity
same,"effect on mean blood pressure, in words","conscious rats; increasing doses as single bolus injections, aqueous solution, data in Figure 1",blood pressure drop
same,duration of the blood pressure drop,conscious rats; single bolus injections,3 to 5 min
same,IC50,[3],25 µM
same,% Inhibition of Colonic Myeloperoxidase Activity,[4],69%
same,NOS activity as measured by citrulline production,[5],does not increase NOS activity
same,"effect on the relaxation response to acetylcholine, in words","rat aortic rings; complex 0.5 and 5.0 micromolar, acetylcholine 0.1 and 1.0 micromolar",additive effect
same,"effect on the relaxation response to sodium nitroprusside, in words","rat aortic rings; complex 0.5 and 5.0 micromolar, sodium nitroprusside 0.001 to 10 micromolar",additive effect
same,maximum relaxation,"rat aortic rings; endothelium and dose-dependent from 0.05 to 300 micromolar, 30 mM KCl",45%
same,augmentation of cellular cGMP levels,"rat aortic rings; rat aortic rings, 5 micromolar for 1 min.",2.5 fold
